In series [1] the test system is PqsR (pqsA promoter, PA14 mCTX::PpqsA-lux). The experiment in a line: Whole cell biosensor reporter assay, PA14 mCTX::PpqsA-lux. It counts as cell-based, Pseudomonas aeruginosa. As to conditions: for IC50: Mean ± SD, n = 3; for activity at 10 µM: PA14, read-out: PA14 Remaining Activity %; for PqsR inhibitory activity (in words), PA14: screen at 10 µM. Here is the method: (§1) To determine the ability of the quinolines to inhibit PqsR functionality, the P. aeruginosa biosensor strains, PAO1-L and PA14, incorporating a chromosomal mCTX::PpqsA-lux transcriptional fusion, were used. These report on the activation of the pqsA promoter, regulated by PqsR [25]. PAO1-L and PA14 were chosen because they are genetically amenable and belong to the two major P. aeruginosa genomic groups. The quinolone compounds were incubated with the corresponding strain, and luminescence and optical density readings were recorded to monitor the effect of the quinolines on PqsR activity and bacterial growth, respectively. The compounds were screened at 10 µM concentration, and the activity was compared to a control of DMSO (0.1%) (Figure 3a). To be considered a hit, a threshold of at least 50% inhibition of the test compound, relative to the negative control had to be reached, without affecting bacterial growth. […] Concentration-response experiments were then carried out to determine the IC50 values (Figure 3b,c), which are summarised in Table 1.
Strains PA14 mCTX::PpqsA-lux and PAO1-L mCTX::PpqsA-lux were constructed using plasmid mini-CTX::PpqsA-lux, as previously described, and the assay was performed according to a published protocol. For screening, the compounds were tested at a concentration of 10 µM, which was prepared from a 10 mM stock, in DMSO.
Background: A reporter such as luciferase makes a cellular process visible.

The next series has as its system PA14. The experiment in a line: Bacterial growth (optical density) in reporter assay, PA14. In kind it is cell-based, Pseudomonas aeruginosa. The conditions noted are these: compound vs DMSO control. On the procedure:
as §1
Figure 3 Whole bacterial cell-based P. aeruginosa compound screen for both PqsR and growth inhibition (a) Activity against PA14 (green) and PAO1-L (purple) PpqsA-lux reporter strains at 10 µM test compound; (b) and (c) Dose-response curves for active compounds against PA14 (b) and PAO1-L (c); (d) and (e) growth curves for PA14 (d) and PAO1-L (e) in the presence of compound or DMSO control.

For the next series, the system named is AQ production in PA14. The experiment in a line: Alkylquinolone (HHQ, PQS, HQNO) production by LC-MS/MS, PA14. In kind it is cell-based, Pseudomonas aeruginosa. As to conditions: 3x IC50, 16 h, culture supernatant. Here is the method:
HQNO, can protect Staphylococcus aureus from vancomycin [31] and contributes to the environmental competitiveness of P. aeruginosa, through its activity as a potent inhibitor of the cytochrome bc1 complex. […] LC-MS/MS was used to quantify the major AQs HHQ, PQS and HQNO after incubation of the P. aeruginosa strains with the hit compounds, for 16 h. The assay was performed using both PAO1-L and PA14 strains which were treated with PqsR antagonists at concentrations three-fold higher than their IC50 values. The results obtained depended on the inhibitor and strain tested (Figure 5).
For each test sample, 100 µL of sterile filtered supernatant (the same preparation as for pyocyanin) was spiked with 10 µL of an internal standard solution (10 µM d4-PQS in MeOH), and diluted with water, to a total volume of 500 µL. Samples were then extracted three times with an 0.5 mL aliquot of ethyl acetate, vortex mixing the aqueous/organic mix for 2 min, then removing the organic phase once the layers had successfully partitioned. For each sample, the combined organic extracts were dried under vacuum and re-dissolved in 100 µL MeOH prior to analysis. For the LC-MS/MS analysis of supernatant extracts, the chromatography was achieved using a Shimadzu series 10AD VP LC system (Columbia, MD, USA). The LC column, maintained at 40 °C, was a Phenomenex Gemini C18 (3.0 µm, 100 × 3.0 mm) (Macclesfield, Cheshire, UK) with an appropriate guard column. Mobile phase A was 0.1% (v/v) formic acid in water containing 2 mM 2-picolinic acid, and mobile phase B 0.1% (v/v) formic acid in methanol. The flow rate throughout the chromatographic separation was 450 µL/min. After an injection of a 2 µL/sample, a binary gradient, beginning initially at 30% B, increased linearly to 99% B over 5 min. The composition remained at 99% B for 3 min, decreased to 30% B over 1 min, and stayed at this composition for 4 min, to allow for column equilibration. […] Where chromatographic peaks for HHQ, HQNO and PQS were detected, a peak area was determined, and analyte peak area/internal standard peak area calculated.

Another series can be described thus: Plasma stability, human. It counts as in vitro ADME. As to conditions: 37 °C; for half-life at 1 µM: human, plasma, up to 2 h, read-out: Plasma Stability Human t 1/2. On the procedure:
Dilutions of a 10 mM test compound DMSO stock solution were prepared so that the final DMSO concentration was 1% v/v and the final test compound concentration tested was 1 µM. Following the addition of the test compound to plasma, the samples were pre-incubated for 10 min prior to the start of the incubation by the addition of the test compound. The test compound was incubated (n = 2; 1 µM final concentration) at 37 °C with plasma for up to 2 h. Aliquots were sampled at several time points and mixed with acetonitrile (containing internal standard) to terminate the reaction and precipitate the proteins. All the samples were mixed, centrifuged and the supernatants analysed by UPLC-MSMS. Parent disappearance and half-life (t 1/2) values were determined from the slope of the parent depletion curve. Control compounds (imidapril, enalapril, tenofovir and/or propantheline), were respectively included.

A short description of series [2]: Hepatic microsomal stability, rat. It counts as in vitro ADME. The conditions noted are these: liver microsomes, pH 7.4, 0.5 mg/mL protein, NADPH, 37 °C; for microsomal CLint at 1 µM: read-out: Microsomal Stability Rat Clint (intrinsic clearance); for half-life at 1 µM: read-out: Microsomal Stability Rat t1/2. Here is the method: (§2) Dilutions of a 1 mM test compound DMSO stock solution were prepared in buffer (typically 0.01 M phosphate buffered saline (pH 7.4) so that the final DMSO concentration was 0.1% v/v and the final test compound concentration tested was 1 µM. Following addition of protein (0.5 mg/mL final) and NADPH, the samples were pre-incubated for 10 min prior to the start of the incubation by the addition of test compound. The test compounds were then incubated (n = 2; 1 µM final concentration) at 37 °C with tissue microsomes. Aliquots were sampled at several time points and mixed with acetonitrile (containing internal standard) to terminate the reaction and precipitate the proteins. All the samples were mixed, centrifuged and the supernatants analysed by UPLC-MS/MS. The intrinsic clearance (Clint) and half-life (t 1/2) values were determined from the slope of the parent depletion curve. Control compounds for low, moderate and high intrinsic clearance, respectively, for both human and rat microsomes, were included.
A general note: Microsomes from liver hold many membrane-bound enzymes, among them those of drug oxidation.

Series [3] in a line: Hepatic microsomal stability, human. It counts as in vitro ADME. As to conditions: liver microsomes, pH 7.4, 0.5 mg/mL protein, NADPH, 37 °C; for half-life at 1 µM: read-out: Microsomal Stability Human t1/2. On the procedure: as §2
[4] abbreviates: Pseudomonas aeruginosa, PA14, read-out: IC50 PA14, PpqsA-lux reporter.
[5] abbreviates: read-out: IC50 PA14, PpqsA-lux reporter.

One may read the IC50 as the concentration needed to halve the response being measured. Broadly, the microsomal CLint is a measure of how fast metabolising enzymes remove a compound, apart from limits set by blood flow.

Where two headings read alike, the source gives them in different places.

In the case of `CC(=O)N1N=C(c2ccccc2)CC1c1cccc(Nc2ccnc3cc(Cl)ccc23)c1` (centres unmarked) [IIa], the IC50 turned out to be 3700 nM in series [1] (setting [4]) and 4000 ± 1620 nM in series [1] (setting [5]). Also, the activity at 10 µM in series [1] (Pseudomonas aeruginosa) was determined as 19.7 ± 1.9%. The “PqsR inhibitory activity (in words), PA14” value in series [1] is on record as “strong PqsR inhibitory activity”. Further, the “Effect on bacterial growth, PA14” value with PA14 is “without interfering with bacterial growth”. Further, the “Inhibition of AQ production (in words), PA14” value in the series on AQ production in PA14 is given as “moderate effect”. Also, the half-life at 1 µM was found to be 73.8 min in the series “Plasma stability, human”; 15.8 min in series [2]; 19 min in series [3]. Further, the microsomal CLint at 1 µM in series [2] was 87.8 µL/min/mg; in series [3], 73 µL/min/mg.
Turning to `O=CN1N=C(c2ccccc2)CC1c1cccc(Nc2ccnc3cc(Cl)ccc23)c1` (centres unmarked) [Ia], the results for the IC50 in series [1] (setting [4]) and in series [1] (setting [5]) were 2200 nM and 2300 ± 510 nM, respectively. Moreover, the activity at 10 µM in series [1] (Pseudomonas aeruginosa) is 18.7 ± 1.98%. Moreover, the “PqsR inhibitory activity (in words), PA14” value in series [1] is “strong PqsR inhibitory activity”. The “Effect on bacterial growth, PA14” value with PA14 is listed as “without interfering with bacterial growth”. Moreover, the “Inhibition of AQ production (in words), PA14” value in the series on AQ production in PA14 is “strongly-inhibited AQ production”. In the series “Plasma stability, human” (1 µM), the “Plasma stability (in words), human plasma” value was “greatest plasma stability”. Further, the half-life at 1 µM in “Plasma stability, human” was determined as 132 min; in series [2], 11.5 min; in series [3], 23.3 min. Further, the values for the microsomal CLint at 1 µM in series [2] and in series [3] were 122 µL/min/mg and 60.3 µL/min/mg, respectively.

For the origin of these results see article PMC6017655, “In Silico and in Vitro-Guided Identification of Inhibitors of Alkylquinolone-Dependent Quorum Sensing in Pseudomonas aeruginosa” (Molecules : A Journal of Synthetic Chemistry and Natural …, 2018).
